melting point: 232 °C (dec.)
SMILES: COC(=O)C(=C(/C)c1ccc(C(=O)O)cc1)/C(=C\c1cccc(OC)c1)C(=O)Nc1ccnc(C)c1.Cl
